The inhibition is the percentage by which the read-out fell short of the control.

We go through 55 molecules from ChEMBL document CHEMBL4334494, “Recent advances in the targeting of human DNA ligase I as a potential new strategy for cancer treatment” (Eur J Med Chem, 2019).

For data set [1], the target named is T1, DNA ligase 1 (Homo sapiens, UniProt P18858). Kind of data set: Inhibition of human DNA ligase 1 at 25 uM using nicked DNA as substrate after 30 mins relative to control.
The next data set deals with DLD-1. Kind of data set: Antiproliferative activity against human DLD1 cells at 100 uM relative to control. The data set is classed as functional.
Another data set concerns HepG2. Kind of data set: Antiproliferative activity against human HepG2 cells at 100 uM relative to control. The data set is classed as functional.
For a further data set, the system named is MDA-MB-231. Kind of data set: Antiproliferative activity against human MDA-MB-231 cells at 100 uM relative to control. The data set is classed as functional.
A further data set relates to HEK293. Kind of data set: Cytotoxicity against HEK293 cells at 100 uM relative to control. The data set is classed as cell-based. The conditions noted are these: human, hek293, 100 µM.
The next data set concerns HCT-116. Kind of data set: Antiproliferative activity against human HCT116 cells at 100 uM relative to control. The data set is classed as functional.
The test system of the next data set is A549. Kind of data set: Antiproliferative activity against human A549 cells at 100 uM relative to control. The data set is classed as functional.
In data set [2] the target is T1, DNA ligase 1. Kind of data set: Inhibition of human DNA ligase 1 expressed in Escherichia coli BL21DE3RP cells at 50 uM using 52-mer DNA/25-mer DNA/27-mer DNA as substrate after 30 mins by Cyanin3 dye-based fluorescence assay relative to control.

T1 sequence (P18858 whole entry): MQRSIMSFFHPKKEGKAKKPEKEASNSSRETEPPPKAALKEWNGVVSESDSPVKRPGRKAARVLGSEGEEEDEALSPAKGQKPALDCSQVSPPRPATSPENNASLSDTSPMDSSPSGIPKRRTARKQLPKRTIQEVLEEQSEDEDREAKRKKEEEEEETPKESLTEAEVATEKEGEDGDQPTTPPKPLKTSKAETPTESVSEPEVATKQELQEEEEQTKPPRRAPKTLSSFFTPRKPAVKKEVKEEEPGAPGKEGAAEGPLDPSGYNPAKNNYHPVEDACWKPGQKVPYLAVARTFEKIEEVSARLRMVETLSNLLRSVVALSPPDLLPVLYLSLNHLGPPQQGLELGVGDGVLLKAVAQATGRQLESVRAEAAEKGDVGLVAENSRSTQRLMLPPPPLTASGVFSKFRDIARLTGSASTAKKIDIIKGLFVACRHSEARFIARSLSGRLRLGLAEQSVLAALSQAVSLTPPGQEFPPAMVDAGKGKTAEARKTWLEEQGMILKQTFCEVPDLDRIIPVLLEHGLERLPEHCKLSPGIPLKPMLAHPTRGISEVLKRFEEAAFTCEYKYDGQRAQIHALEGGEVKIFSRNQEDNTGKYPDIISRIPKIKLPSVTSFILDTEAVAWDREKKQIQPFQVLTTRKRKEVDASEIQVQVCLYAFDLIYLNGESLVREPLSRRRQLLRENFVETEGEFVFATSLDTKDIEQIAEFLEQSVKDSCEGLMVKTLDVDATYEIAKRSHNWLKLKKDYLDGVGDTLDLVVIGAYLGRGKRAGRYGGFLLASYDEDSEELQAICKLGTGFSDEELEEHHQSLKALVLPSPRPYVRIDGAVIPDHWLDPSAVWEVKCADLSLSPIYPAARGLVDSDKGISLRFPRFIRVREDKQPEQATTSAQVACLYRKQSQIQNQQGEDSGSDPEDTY

For `COc1cc(/C=C/c2cc(=O)oc3c2ccc2c(C)cccc23)c(OC)c(OC)c1OC`, the inhibition on DNA ligase 1 [1] is less than 50%.

With `CCOC(=O)C1=C(C)NC(=O)NC1c1cc(/C=N/NC(=S)Nc2ccc(Cl)cc2)c(O)c(C(C)(C)C)c1` (stereo not given), the inhibition at 100 µM in the data set with DLD-1, in the data set with HepG2, with MDA-MB-231, in the data set on HCT-116 and in the data set with A549 was greater than 80% in each case. Moreover, the Activity in the data set on HEK293 is on record as greater than 80%.

For the molecule `CCOC(=O)C1=C(C)NC(=S)NC1c1cc(/C=N/NC(=S)Nc2ccc(C)cc2)c(O)c(C(C)(C)C)c1` (stereo not given), the inhibition at 100 µM with DLD-1, in the data set with HepG2, in the data set on MDA-MB-231, with HCT-116 and in the data set with A549 was less than 80% each time. Moreover, the Activity with HEK293 is less than 80%.

Turning to `COc1ccc(/C=C/c2cc(=O)oc3c2ccc2c(OC)cccc23)cc1OC`, the inhibition at DNA ligase 1 [1] is greater than 50%.

On to `CCOC(=O)C1=C(C)NC(=S)NC1c1cc(/C=N/NC(=S)Nc2ccccc2)c(O)c(C(C)(C)C)c1` (stereo not given), for which the inhibition at 100 µM with DLD-1, with HepG2, in the data set on MDA-MB-231, with HCT-116 and in the data set with A549 was less than 80% in each case. In the data set on HEK293, the Activity is less than 80%.

At DNA ligase 1 [1], `COc1ccc(/C=C/c2cc(=O)oc3c2ccc2c(OC)cccc23)cc1` gave an inhibition of less than 50%.

In the case of `O=c1cc(/C=C/c2ccc([N+](=O)[O-])cc2)c2ccc3ccccc3c2o1`, the inhibition at DNA ligase 1 [1] was greater than 90%.

`N#Cc1ccc(/C=C/c2cc(=O)oc3c2ccc2ccccc23)cc1` came in with an inhibition against DNA ligase 1 [1] of less than 50%.

As to `CCOC(=O)C1=C(C)NC(=O)NC1c1cc(C)c(O)c(/C=N/NC(=S)NC)c1` (stereo not given), the inhibition at 100 µM with DLD-1, in the data set on HepG2, with MDA-MB-231, in the data set with HCT-116 and in the data set on A549 was greater than 80% in each case. The molecule also displayed an Activity with HEK293 greater than 80%.

As to `COc1ccc(/C=C/c2cc(=O)oc3c2ccc2c(C)cccc23)c(OC)c1`, the inhibition against DNA ligase 1 [1] is greater than 90%.

In the case of `CCOC(=O)C1=C(C)NC(=O)NC1c1cc(C)c(O)c(/C=N/NC(N)=O)c1` (stereo not given), the inhibition at 100 µM with DLD-1, with HepG2, in the data set with MDA-MB-231, in the data set on HCT-116 and in the data set with A549 was less than 80% in each case. In the data set with HEK293, the Activity is less than 80%.

As for `COc1ccc(/C=C/c2cc(=O)oc3c2ccc2c(C)cccc23)cc1OC`, the inhibition at DNA ligase 1 [1] was less than 50%.

Regarding `Cc1ccccc1/C=C1\CN(C(=S)Nc2ccccc2)C/C(=C\c2ccccc2C)C1=O`, at DNA ligase 1 [2], the inhibition was greater than 75%.

For the molecule `COc1ccc(/C=C2\CN(C(=S)NCCc3ccccc3)C/C(=C\c3ccc(OC)cc3)C2=O)cc1`, at DNA ligase 1 [2], the inhibition was greater than 75%.

As for `O=C1/C(=C/c2ccc(F)cc2)CN(C(=S)NCc2ccccc2)C/C1=C\c1ccc(F)cc1`, the inhibition on DNA ligase 1 [2] is greater than 75%.

In the case of `CCOC(=O)C1=C(C)NC(=S)NC1c1cc(/C=N/NC(=O)Nc2ccc(Cl)cc2)c(O)c(C(C)(C)C)c1` (stereo not given), the inhibition at 100 µM in the data set on DLD-1, in the data set with HepG2, with MDA-MB-231, in the data set on HCT-116 and in the data set on A549 was less than 80% throughout. The molecule further returned an Activity in the data set with HEK293 of less than 80%.

Consider `CCOC(=O)C1=C(C)NC(=O)NC1c1cc(/C=N/NC(=O)Nc2cccc(OC)c2)c(O)c(C(C)(C)C)c1` (stereo not given), for which the inhibition at 100 µM in the data set on DLD-1, with HepG2, in the data set on MDA-MB-231, in the data set with HCT-116 and in the data set with A549 was greater than 80% each time. In the data set on HEK293, this molecule yielded an Activity greater than 80%.

Regarding `Cc1ccccc1/C=C1\CN(c2nc(-c3ccccc3)cs2)C/C(=C\c2ccccc2C)C1=O`, the inhibition against DNA ligase 1 [2] was greater than 75%.

For the molecule `CCOC(=O)C1=C(C)NC(=O)NC1c1cc(C)c(O)c(/C=N/NC(N)=S)c1` (stereo not given), the inhibition at 100 µM in the data set on DLD-1, with HepG2, with MDA-MB-231, in the data set on HCT-116 and in the data set with A549 was greater than 80% in each case. The Activity with HEK293 is recorded as greater than 80%.

For `COc1ccc(/C=C/c2cc(=O)oc3c2ccc2ccccc23)cc1OC`, the inhibition on DNA ligase 1 [1] is less than 50%.

Take `O=C1/C(=C/c2ccc(F)cc2)CN(c2nc(-c3ccccc3)cs2)C/C1=C\c1ccc(F)cc1`: on DNA ligase 1 [2], the inhibition is greater than 75%.

For the molecule `COc1ccc(OC)c(/C=C/c2cc(=O)oc3c2ccc2ccccc23)c1`, the inhibition on DNA ligase 1 [1] is less than 50%.

In the case of `COc1ccc(/C=C2\CN(c3nc(-c4ccccc4)cs3)C/C(=C\c3ccc(OC)cc3)C2=O)cc1`, the inhibition on DNA ligase 1 [2] is greater than 75%.

In turn, `COc1ccc(/C=C/c2cc(=O)oc3c2ccc2ccccc23)cc1` showed an inhibition against DNA ligase 1 [1] of less than 50%.

With `CN(C)c1ccc(/C=C/c2cc(=O)oc3c2ccc2ccccc23)cc1`, the inhibition at DNA ligase 1 [1] was less than 50%.

On to `O=C1/C(=C/c2ccc(F)cc2)CN(C(=S)Nc2ccccc2)C/C1=C\c1ccc(F)cc1`, for which, on DNA ligase 1 [2], the inhibition was greater than 75%.

On to `COc1cc(/C=C/c2cc(=O)oc3c2ccc2c(OC)cccc23)cc(OC)c1OC`, for which the inhibition on DNA ligase 1 [1] was less than 50%.

`COc1cccc(OC)c1/C=C/c1cc(=O)oc2c1ccc1c(OC)cccc12` showed an inhibition against DNA ligase 1 [1] of less than 50%.

`CCCCNC(=S)N1C/C(=C\c2ccc(OC)cc2)C(=O)/C(=C/c2ccc(OC)cc2)C1`: at DNA ligase 1 [2], the inhibition was greater than 75%.

`O=c1cc(/C=C/c2ccccc2)c2ccc3ccccc3c2o1`: at DNA ligase 1 [1], the inhibition was less than 50%.

As for `COc1cccc2c1ccc1c(/C=C/c3ccc(C#N)cc3)cc(=O)oc12`, at DNA ligase 1 [1], the inhibition is greater than 90%.

In turn, `O=C1/C(=C/c2ccccc2F)CN(c2nc(-c3ccccc3)cs2)C/C1=C\c1ccccc1F` came in with an inhibition at DNA ligase 1 [2] greater than 75%.

The molecule `COc1cccc2c1ccc1c(/C=C/c3ccccc3)cc(=O)oc12` showed an inhibition against DNA ligase 1 [1] greater than 50%.

As for `CCOC(=O)C1=C(C)NC(=O)NC1c1cc(/C=N/NC(=S)Nc2ccccc2)c(O)c(C(C)(C)C)c1` (stereo not given), the inhibition at 100 µM in the data set with DLD-1, in the data set with HepG2, with MDA-MB-231, in the data set on HCT-116 and with A549 was greater than 80% throughout. Besides, the Activity in the data set on HEK293 was greater than 80%.

On to `Cc1ccccc1/C=C1\CN(C(=S)NCCc2ccccc2)C/C(=C\c2ccccc2C)C1=O`, for which the inhibition on DNA ligase 1 [2] is greater than 75%.

Take `COc1cccc2c1ccc1c(/C=C/c3ccc([N+](=O)[O-])cc3)cc(=O)oc12`: at DNA ligase 1 [1], the inhibition was greater than 90%.

With `CCOC(=O)C1=C(C)NC(=O)NC1c1cc(/C=N/NC(=O)Nc2ccc(Br)cc2)c(O)c(C(C)(C)C)c1` (stereo not given), the inhibition at 100 µM in the data set with DLD-1, in the data set with HepG2, in the data set on MDA-MB-231, in the data set on HCT-116 and in the data set with A549 was greater than 80% throughout. This molecule gave an Activity with HEK293 greater than 80%.

With `CCOC(=O)C1=C(C)NC(=S)NC1c1cc(C)c(O)c(/C=N/NC(=O)Nc2ccc(Cl)cc2)c1` (stereo not given), the inhibition at 100 µM in the data set on DLD-1, in the data set on HepG2, in the data set with MDA-MB-231, with HCT-116 and in the data set with A549 was greater than 80% each time. In addition, in the data set with HEK293, the Activity is greater than 80%.

`CCOC(=O)C1=C(C)NC(=O)NC1c1cc(/C=N/NC(=O)Nc2ccc(F)cc2)c(O)c(C(C)(C)C)c1` (stereo not given): the inhibition at 100 µM with DLD-1, with HepG2, with MDA-MB-231, with HCT-116 and in the data set on A549 was greater than 80% in each case. In the data set with HEK293, this molecule returned an Activity greater than 80%.

Consider `CC(C)c1ccc(/C=C2\CN(C(=S)NCc3ccccc3)C/C(=C\c3ccc(C(C)C)cc3)C2=O)cc1`, for which, on DNA ligase 1 [2], the inhibition is greater than 75%.

On DNA ligase 1 [1], `COc1ccc(/C=C/c2cc(=O)oc3c2ccc2c(OC)cccc23)c(OC)c1` came in with an inhibition of less than 50%.

Turning to `COc1ccc(/C=C/c2cc(=O)oc3c2ccc2ccccc23)c(OC)c1`, the inhibition at DNA ligase 1 [1] was less than 50%.

On DNA ligase 1 [1], `Cc1cccc2c1ccc1c(/C=C/c3ccc([N+](=O)[O-])cc3)cc(=O)oc12` showed an inhibition greater than 90%.

`COc1ccccc1/C=C/c1cc(=O)oc2c1ccc1c(C)cccc12` returned an inhibition against DNA ligase 1 [1] of less than 50%.

Regarding `O=C1/C(=C/c2ccccc2F)CN(C(=S)NC(=O)c2ccccc2)C/C1=C\c1ccccc1F`, the inhibition on DNA ligase 1 [2] is greater than 75%.

As to `Cc1cccc2c1ccc1c(/C=C/c3ccccc3)cc(=O)oc12`, at DNA ligase 1 [1], the inhibition is less than 50%.

With `COc1ccc(/C=C2\CN(C(=S)NCc3ccccc3)C/C(=C\c3ccc(OC)cc3)C2=O)cc1`, on DNA ligase 1 [2], the inhibition was greater than 75%.

With `Cc1ccc(/C=C2\CN(C(=S)Nc3ccccc3)C/C(=C\c3ccc(C)cc3)C2=O)cc1`, the inhibition at DNA ligase 1 [2] was greater than 75%.

The molecule `COc1cc(/C=C/c2cc(=O)oc3c2ccc2ccccc23)cc(OC)c1OC` had an inhibition against DNA ligase 1 [1] of less than 50%.

Consider `COc1ccc(OC)c(/C=C/c2cc(=O)oc3c2ccc2c(OC)cccc23)c1`, for which, on DNA ligase 1 [1], the inhibition is less than 50%.

Molecule `CC(C)c1ccc(/C=C2\CN(c3nc(-c4ccccc4)cs3)C/C(=C\c3ccc(C(C)C)cc3)C2=O)cc1` gave an inhibition against DNA ligase 1 [2] greater than 75%.

For the molecule `Cc1ccc(/C=C2\CN(C(=S)NCc3ccccc3)C/C(=C\c3ccc(C)cc3)C2=O)cc1`, on DNA ligase 1 [2], the inhibition was greater than 75%.

As to `COc1cc(/C=C/c2cc(=O)oc3c2ccc2c(C)cccc23)cc(OC)c1`, the inhibition against DNA ligase 1 [1] is greater than 50%.

Molecule `COc1cccc(/C=C/c2cc(=O)oc3c2ccc2ccccc23)c1` returned an inhibition against DNA ligase 1 [1] of less than 50%.

For the molecule `COc1ccc(OC)c(/C=C/c2cc(=O)oc3c2ccc2c(C)cccc23)c1`, at DNA ligase 1 [1], the inhibition was less than 50%.
